How the values were obtained:
[1] = tested on: Leishmania mexicana amazonensis; test: In vitro screening for anti-leishmanial activity: inhibition of 3H-thymidine incorporation by promastigotes; format: cell-based; conditions: for IC50: PREVIOUS, Table III only
Method: Leishmania mexicana amazonensis, strain MHOM/BR/73/M2269 (WR669), promastigotes were grown to early log phase in Schneider's Drosophila Medium (GIBCO) supplemented with 20% heat-inactivated fetal bovine serum GIBCO) and 100 ug/ml gentamicin sulfate [Parasitology 76:309 (1978)]. The assay medium was Schneider's plus 10% fetal bovine serum. Serial dilutions of the compounds of use in the present invention were suspended in the assay medium an prepared in duplicate rows of a 96-well microtiter plate. Parasite suspension (200 ul) at 2.5×10^6 cells/ml was added to each well and each plate was sealed and incubated under air at 25° C. After 24 hours, [methyl-3H] thymidine (20 Ci/mmol) was added to yield 1-2 uCi/well. After an additional 18 hours, the cells were harvested with a Skatron cell harvester onto glass microfiber filters. The filter disks were washed and dried and counted using a Beckman LS3801 scintillation counter. The data on uptake of ^3 H-thymidine was fitted to a logistic-logarithmic concentration response function by a non-linear regression method and the drug concentrations required to inhibit 50% incorporation of ^3 H-thymidine were determined [Antimicrob. Agents Chemother. 16:710 (1979); Exper. Parasitol. 66:86 (1988)].

leishmaniasis = conditions: Reviews of Infectious Diseases 10(3):576-577; Experimental Parasitology 52:409 (1981); cited from earlier work
[2] = tested on: Preumocystis carinii pneumonia; conditions: especially immunocompromised patients suffering from AIDS; cited from earlier work
trypanosomiasis = conditions: in vivo; cited from earlier work

Structure (SMILES)	anti-Leishmania activity (in words) [1]	IC50 ([1]; Leishmania mexicana)	further results
CN1CCN=C1c1ccc(OCCCCCOc2ccc(C3=NCCN3C)cc2)cc1 [Example 16]			IC50 [1]: > 4500 nM
N=C(N)c1ccc(NCCCCCNc2ccc(C(=N)N)cc2)cc1 [Example 8]	high-degree of anti-Leishmania activity		
c1cc(C2=NCCN2)ccc1OCCCCCOc1ccc(C2=NCCN2)cc1 [Example 15]		670 nM	
N=C(N)c1ccc(OCCCCCOc2ccc(C(=N)N)cc2)cc1 [Example 4, pentamidine]	moderately effective against Leishmania		utility for treating leishmaniasis (in words) (leishmaniasis): limited utility for the purpose of treating leishmaniasis; usefulness in treatment of Preumocystis carinii pneumonia (in words) [2]: extremely useful in the treatment of Preumocystis carinii pneumonia; usefulness for treatment of trypanosomiasis (in words) (trypanosomiasis): useful for the treatment of trypanosomiasis
N=C(N)c1ccc(OCCCCCCOc2ccc(C(=N)N)cc2)cc1 [Example 9, hexamidine]	high-degree of anti-Leishmania activity		
COc1cc(C2=NCCN2)ccc1OCCCOc1ccc(C2=NCCN2)cc1OC [Example 17]		> 4500 nM	
